IC50 data for 15 compounds are collected here from patent publication US20250129021A1, “SMALL MOLECULE PROTEIN SYNTHESIS MODULATORS” (Interdict Bio, Inc., priority 2023, published 2025).

Common to all, as to type: biochemical
One assay deals with CCND1. Put plainly: In vitro transcription-translation (IVTT) assay, CCND1 reporter. Particulars: IVTT, HeLa S3 lysate, 2 hrs at 30° C. An excerpt: (§1) All reporter constructs have been cloned into the pT7CFE1-CHis plasmid (ThermoFisher #88860) using Gibson assembly procedures (NEB #E2611L). The parental pT7CFE1-CHis plasmid contains an EMCV IRES at the 5′UTR for translation initiation, a multiple-cloning site (MCS) for gene insertion, an optional C-terminal His-epitope tag, and polyA sequence in the 3′UTR to regulate mRNA stability. All reporters are designed to be inserted at the MCS to include a red fluorescent protein (mCherry), P2A self-cleaving peptide which releases the preceding mCherry protein product, and a fusion open reading frame containing a 3×FLAG epitope, a peptide sequence of interest (TEST), and green fluorescent protein (sfGFP).
(§2) Construct Plasmid Preparation: All plasmids are isolated from MACH1 cells (ThermoFisher) grown overnight in ampicillin-containing luria broth, and purified using ZymoPure Express Plasmid Midiprep Kit (Zymo Research). Constructs are sequenced verified and diluted to a working concentration of 110 ng/μL.
(§3) HeLa S3 Lysate Preparation: HeLa S3 cell pellets are acquired from Ipracell/Ipratech (Belgium) and shipped as 4 mL frozen cell pellets on dry ice for storage at −80° C. until use. The procedure for lysate preparation is as follows. Prepare 1× Lysis Buffer, cold and stored on ice:
(§4) Each preparation takes 8 cell pellets (4 ml packed volume each, approximately 1.0×10^9 cells per pellet). Thaw cell pellets from −80° C. on ice for 90 mins. Lay pellets horizontally on top of the ice and rotate every 30 mins to ensure even thawing. Once thawed, add 4 mL of cold lysis buffer to each pellet, and using a serological pipet, gently pipet up and down to break up clumps. Incubate resuspended cells in ice for an additional 30 mins (plunged into ice). During 30 min incubation, rinse and RNase-zap (Ambion) glass dounces (use loose pestle “A”), gently dry and place on ice until needed. Prepare RNase-free Eppendorf tubes for spinning and for batch storage. Add batch labels to 1.5-1.7 mL RNase-free microcentrifuge tubes (labeling scheme below). Each batch will have an extra 1.5-1.7 mL RNase-free microcentrifuge tube for 40 μL of lysate, label the top of this tube (labeling scheme below). After 30 min incubation, transfer all 8 mL of cell pellet to dounce. Cell lysis is complete after douncing 100 times. Aliquot cell lysis into 1.5-1.7 mL temporary-microcentrifuge tubes. Place tubes in centrifuge with “fins” out, and spin at 1,200×g for 5 mins. After the first spin use a 1 mL pipet to resuspend each tube and repeat spin. This acts as an additional lysis step, is more vigorous and increases lysate yield. During second spin get liquid N2 and a fresh conical tube on ice. After spin is complete, transfer supernatant (lysate) from microcentrifuge tubes into the 50 mL conical tube and keep on ice. Repeat steps 10-14 for all other cell pellets until completed. Once all cell lysate has been transferred to the 50 mL conical tube pipet to mix so the solution is homogenous. Transfer 1 mL of lysate into batch-labeled microcentrifuge tubes and flash freeze in liquid nitrogen. Be sure to pipet up and down to mix throughout transfer step. Place all tubes in the […] for long-term storage.
(§5) In vitro transcription-translation assay setup: Each assay includes a master mix containing lysate and shared components, a 96-well plate containing compound titrations for testing, a 96-well DNA plate with reporter constructs to be tested, 96-well skirted PCR plates, and 96-well flat-bottom, black, fluorescent assay plates. […]

A further assay has as its system MCL-1. Put plainly: In vitro transcription-translation (IVTT) assay, MCL-1 reporter. Particulars: IVTT, HeLa S3 lysate, 2 hrs at 30° C.; read-out: MCL1 IC50.
From the text: as §1, §2, §3, §4, §5

The subject of another assay is MYC. Description: In vitro transcription-translation (IVTT) assay, MYC reporter. The following applies: IVTT assay, HeLa S3 lysate, MYC reporter, normalized sfGFP/mCherry ratio; half-log dilutions 30 μM-0.1 μM, 2 hrs at 30° C.
From the text: as §1, §2, §3, §4, §5

The next assay deals with CCNTB1. Put plainly: In vitro transcription-translation (IVTT) assay, CCNTB1 reporter. The following applies: HeLa S3 lysate, 2 hrs at 30° C. Here is the method: as §4
In vitro transcription-translation assay setup: Each assay includes a master mix containing lysate and shared components, a 96-well plate containing compound titrations for testing, a 96-well DNA plate with reporter constructs to be tested, 96-well skirted PCR plates, and 96-well flat-bottom, black, fluorescent assay plates. Reaction materials setup: (A) Master mix—15 mL conical tube (3 mL of HeLa S3 Lysate described above; 0.6 mL of ThermoFisher Accessory Proteins (#88882); 1.2 ml of ThermoFisher Reaction Mix (#88882); 0.54 mL of nuclease-free Water); (B) 96-Well Master Mix+Compound Plate (Half-log dilutions (30 μM−0.1 μM) of 4 compounds of interest are prepared in 100% DMSO); 96-Well DNA Plate (Five DNA constructs are plated into single columns within the plate. Row 1 of the column contains nuclease free H2O, all other wells contain 110 ng/μL plasmid DNA). Reactions are started by mixing 155 μL of master mix and 3.5 μL of compound serial dilutions, then 9.1 μL of master mix+compound mixture is aliquoted across 5 96-well plates. Reactions begin with final addition of 2 μL of DNA for a 11.1 μL reaction volume in each well. The entire plate is sealed, and incubated for 2 hrs at 30° C. After 2 hrs, quench the assay using 45 μL of PBS, and transfer 50 μL to a flat-bottom black microplate Quantify the sfGFP and mCherry signals from each well on each plate, taking 3 reads of each plate, and perform data analysis below.
In vitro transcription-translation assay data analysis: Each plate is read three times in channels for both sfGFP and mCherry signals. The average signal across these 3 reads is then calculated for further analysis. Control wells containing no DNA reporter are subtracted from reporter wells in the same column to remove auto-fluorescence of the lysate. Then, the ratio of sfGFP/mCherry is calculated per well, and these ratios are averaged across the triplicate experiments on the same plate. Finally, the ratio of each titration concentration is normalized to the no drug control to create the normalized stalling metric. […]

Where only a bound is given, the exact number is not on record here.

Turning to `COc1ccc(C[C@H]2NC[C@H](O)[C@H]2OC(=O)NCC2COC2)cc1` [V188299, (2R,3S,4S)-4-hydroxy-2-[(4-methoxyphenyl)methyl]pyrrolidin-3-yl N-(oxetan-3-ylmethyl)carbamate], the 50% inhibitory concentration (IC50) in the assay with CCND1 is 10 to 20 µM; with MCL-1 it was < 10 µM; in the assay with MYC, < 10 µM; with CCNTB1, < 10 µM.
Take `COc1ccc(C[C@H]2NC[C@H](O)[C@H]2OC(=O)NCc2ccnc(F)c2)cc1` [V190522, (2R,3S,4S)-4-hydroxy-2-[(4-methoxyphenyl)methyl]pyrrolidin-3-yl N-[(2-fluoropyridin-4-yl)methyl]carbamate]: the IC50 in the assay on CCND1, in the assay on MCL-1, with MYC and with CCNTB1 was < 10 µM in each case.
Consider `COc1ccc(C[C@H]2NC[C@H](O)[C@H]2OC(=O)NCc2ccc3c(c2)CCNC3)cc1` [V188345, (2R,3S,4S)-4-hydroxy-2-[(4-methoxyphenyl)methyl]pyrrolidin-3-yl N-(1,2,3,4-tetrahydroisoquinolin-6-ylmethyl)carbamate], for which the IC50 in the assay on CCND1, in the assay on MCL-1, in the assay on MYC and in the assay on CCNTB1 was < 10 µM throughout.
As to `COc1ccc(C[C@H]2NC[C@H](O)[C@H]2OC(=O)NCc2ccc(C3CNC3)cc2)cc1` [V190559, (2R,3S,4S)-4-hydroxy-2-[(4-methoxyphenyl)methyl]pyrrolidin-3-yl N-{[4-(azetidin-3-yl)phenyl]methyl}carbamate], the IC50 with CCND1, with MCL-1, with MYC and in the assay with CCNTB1 was < 10 µM in each case.
Take `COc1ccc(C[C@H]2NC[C@H](O)[C@H]2OC(=O)NCc2ccc(C3CCCN3)cc2)cc1` (stereo partly drawn) [V188355, (2R,3S,4S)-4-hydroxy-2-[(4-methoxyphenyl)methyl]pyrrolidin-3-yl N-{[4-(pyrrolidin-2-yl)phenyl]methyl}carbamate]: the half-maximal inhibitory concentration (IC50) in the assay on CCND1, in the assay with MCL-1, in the assay with MYC and with CCNTB1 was < 10 µM throughout.
In the case of `COc1ccc(C[C@H]2NC[C@H](O)[C@H]2OC(=O)NCc2ccc(N)nc2)cc1` [V188316, (2R,3S,4S)-4-hydroxy-2-[(4-methoxyphenyl)methyl]pyrrolidin-3-yl N-[(6-aminopyridin-3-yl)methyl]carbamate], the 50% inhibitory concentration (IC50) with CCND1, with MCL-1, with MYC and in the assay with CCNTB1 was < 10 µM throughout.
With `COc1ccc(C[C@H]2NC[C@H](O)[C@H]2OC(=O)NCCc2cnoc2)cc1` [V190449, (2R,3S,4S)-4-hydroxy-2-[(4-methoxyphenyl)methyl]pyrrolidin-3-yl N-[2-(1,2-oxazol-4-yl)ethyl]carbamate], the IC50 in the assay with CCND1, in the assay on MCL-1, with MYC and in the assay with CCNTB1 was < 10 µM in each case.
As to `O=C(NCC[C@@H]1CCCN1)O[C@@H]1[C@@H](O)CN[C@@H]1Cc1ccc(-c2ccc(C(F)(F)F)cc2)cc1` [V191963, (2R,3S,4S)-4-hydroxy-2-{[4′-(trifluoromethyl)-[1,1′-biphenyl]-4-yl]methyl}pyrrolidin-3-yl N-{2-[(2S)-pyrrolidin-2-yl]ethyl}carbamate], the IC50 in the assay on CCND1 was > 30 µM; in the assay with MCL-1, 20 to 30 µM; in the assay on MYC, > 30 µM; with CCNTB1, 20 to 30 µM.
Regarding `O=C(NCc1cccc(F)c1)O[C@@H]1[C@@H](O)CN[C@@H]1Cc1ccc(-c2cncs2)cc1` [V190546, (2R,3S,4S)-4-hydroxy-2-{[4-(1,3-thiazol-5-yl)phenyl]methyl}pyrrolidin-3-yl N-[(3-fluorophenyl)methyl]carbamate], the IC50 in the assay on CCND1, with MCL-1, in the assay with MYC and in the assay with CCNTB1 was < 10 µM in each case.
Take `COc1ccc(C[C@H]2NC[C@H](O)[C@H]2OC(=O)NCc2ccc(CN)cc2)cc1` [V188322, (2R,3S,4S)-4-hydroxy-2-[(4-methoxyphenyl)methyl]pyrrolidin-3-yl N-{[4-(aminomethyl)phenyl]methyl}carbamate]: the half-inhibitory concentration (IC50) in the assay on CCND1, in the assay on MCL-1, in the assay with MYC and with CCNTB1 was < 10 µM each time.
Take `CCCOc1ccc(C[C@H]2NC[C@H](O)[C@H]2OC(=O)NCc2ccccc2)cc1` [V188376, (2R,3S,4S)-4-hydroxy-2-[(4-propoxyphenyl)methyl]pyrrolidin-3-yl N-benzylcarbamate]: the half-inhibitory concentration (IC50) in the assay on CCND1 was 10 to 20 µM; in the assay on MCL-1, < 10 µM; with MYC, < 10 µM; in the assay with CCNTB1, < 10 µM.
In the case of `COc1ccc(C[C@H]2NC[C@H](O)[C@H]2OC(=O)NCc2ccccc2C#N)cc1` [V191911, (2R,3S,4S)-4-hydroxy-2-[(4-methoxyphenyl)methyl]pyrrolidin-3-yl N-[(2-cyanophenyl)methyl]carbamate], the IC50 with CCND1 is 10 to 20 µM; in the assay with MCL-1, < 10 µM; in the assay on MYC, < 10 µM; in the assay on CCNTB1, < 10 µM.
Take `COc1ccc(C[C@H]2NC[C@H](O)[C@H]2OC(=O)NCc2ccc(Cn3cccn3)cc2)cc1` [V188314, (2R,3S,4S)-4-hydroxy-2-[(4-methoxyphenyl)methyl]pyrrolidin-3-yl N-{[4-(pyrazol-1-ylmethyl)phenyl]methyl}carbamate]: the IC50 in the assay with CCND1, in the assay on MCL-1, in the assay on MYC and with CCNTB1 was < 10 µM in each case.
As to `COc1ccc(C[C@H]2NC[C@H](O)[C@H]2OC(=O)NCc2nnc(C)o2)cc1` [V188303, (2R,3S,4S)-4-hydroxy-2-[(4-methoxyphenyl)methyl]pyrrolidin-3-yl N-[(5-methyl-1,3,4-oxadiazol-2-yl)methyl]carbamate], the IC50 in the assay on CCND1, in the assay on MCL-1, in the assay on MYC and in the assay with CCNTB1 was < 10 µM throughout.
With `COc1ccc(C[C@H]2NC[C@H](O)[C@H]2OC(=O)NCc2cc(F)cc(F)c2)cc1` [V188380, (2R,3S,4S)-4-hydroxy-2-[(4-methoxyphenyl)methyl]pyrrolidin-3-yl N-[(3,5-difluorophenyl)methyl]carbamate], the IC50 with CCND1, with MCL-1, with MYC and with CCNTB1 was < 10 µM throughout.
